Non-standard residues stand in square brackets, D forms with d. Residues, ends and D or L forms follow the SMILES beside them. No end group written: not given here. Orn = NCCC[C@H](N)C(=O)O; Aib = CC(C)(N)C(=O)O

We go through 22 compounds from patent US7273848B2, “Apolipoprotein A-I agonists and their use to treat dyslipidemic disorders” (priority 1997, dated 2007).

The assay concerns the target T1, LCAT (purified from human plasma) (Homo sapiens, UniProt P04180).
T1 construct: from tissue; host or cells: human plasma
T1 sequence (P04180 25-440): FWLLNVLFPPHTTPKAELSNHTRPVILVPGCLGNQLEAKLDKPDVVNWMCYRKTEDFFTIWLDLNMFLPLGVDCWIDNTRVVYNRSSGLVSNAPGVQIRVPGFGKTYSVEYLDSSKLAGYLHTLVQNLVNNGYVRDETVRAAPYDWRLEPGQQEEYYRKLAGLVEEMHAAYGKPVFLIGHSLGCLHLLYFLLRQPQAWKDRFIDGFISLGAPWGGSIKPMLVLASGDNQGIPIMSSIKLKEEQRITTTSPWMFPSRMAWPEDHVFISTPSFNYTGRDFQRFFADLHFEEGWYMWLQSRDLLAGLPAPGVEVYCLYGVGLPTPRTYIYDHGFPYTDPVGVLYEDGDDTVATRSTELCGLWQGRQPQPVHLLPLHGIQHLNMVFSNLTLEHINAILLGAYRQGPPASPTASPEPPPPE
Nature of the assay: LCAT activation assay. The assay is classed as biochemical. The conditions noted are these: LCAT activation as compared with native human ApoA-I (= 100%), equivalent masses. Put shortly: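 Activity was expressed as percentage conversion of radiolabelled cholesterol to cholesteryl ester, normalised to native ApoA-I as 100%. LCAT purified from human plasma was added to peptide-preincubated EPC or POPC/cholesterol (20:1) small unilamellar vesicles at pH 7.4. Specific activity is the peptide concentration reaching the conversion plateau at a fixed timepoint.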
As for `CC(C)C[C@H](NC(=O)CNC(=O)[C@H](CCC(=O)O)NC(=O)[C@H](CC(N)=O)NC(=O)[C@H](CC(C)C)NC(=O)[C@H](CC(C)C)NC(=O)[C@H](CCC(=O)O)NC(=O)[C@H](CCCNC(=N)N)NC(=O)[C@H](Cc1ccccc1)NC(=O)[C@H](CC(C)C)NC(=O)[C@H](CC(=O)O)NC(=O)[C@H](CC(C)C)NC(=O)[C@@H](NC(=O)[C@H]1CCCN1)C(C)C)C(=O)N[C@@H](CCC(=O)O)C(=O)N[C@@H](C)C(=O)N[C@@H](CC(C)C)C(=O)N[C@@H](CCCCN)C(=O)N[C@@H](CCC(N)=O)C(=O)N[C@@H](CCCCN)C(=O)N[C@@H](CC(C)C)C(=O)N[C@@H](CCCCN)C(=O)O` [compound 19] (H-[dP]VLDLFRELLNEGLEALKQKLK-OH), the “ACTIVITY (%) LCAT” value worked out at 58%.
To PVLDAFRELGEALLQLKK [compound 226] belongs 1%.
As for `CC(C)C[C@H](NC(=O)[C@H](C)NC(=O)[C@H](CCC(=O)O)NC(=O)[C@H](CC(C)C)NC(=O)C(C)(C)NC(=O)[C@H](CCC(=O)O)NC(=O)[C@H](CC(N)=O)NC(=O)[C@H](CC(C)C)NC(=O)[C@H](CCCCN)NC(=O)[C@H](CCC(=O)O)NC(=O)[C@H](CCCNC(=N)N)NC(=O)[C@H](Cc1ccccc1)NC(=O)[C@H](CCCCN)NC(=O)[C@H](CC(=O)O)NC(=O)[C@H](CC(C)C)NC(=O)[C@@H](NC(=O)[C@@H]1CCCN1)C(C)C)C(=O)N[C@@H](CCCCN)C(=O)N[C@@H](CCC(N)=O)C(=O)N[C@@H](CCCCN)C(=O)N[C@@H](CC(C)C)C(=O)N[C@@H](CCCCN)C(=O)O` [compound 74, PVLDKFREKLNEXLEALKQKLK] (H-PVLDKFREKLNE[Aib]LEALKQKLK-OH), the “ACTIVITY (%) LCAT” value came out at 10%.
As for `CC(C)C[C@H](NC(=O)[C@H](C)NC(=O)[C@H](CCC(=O)O)NC(=O)[C@H](CC(C)C)NC(=O)C(C)(C)NC(=O)[C@H](CC(C)C)NC(=O)[C@H](CC(N)=O)NC(=O)[C@H](CC(C)C)NC(=O)[C@H](CC(C)C)NC(=O)[C@H](CCC(=O)O)NC(=O)[C@H](CCCNC(=N)N)NC(=O)[C@H](Cc1ccccc1)NC(=O)[C@H](CC(C)C)NC(=O)[C@H](CC(=O)O)NC(=O)[C@H](CC(C)C)NC(=O)[C@@H](NC(=O)[C@@H]1CCCN1)C(C)C)C(=O)N[C@@H](CCCCN)C(=O)N[C@@H](CCC(N)=O)C(=O)N[C@@H](CCCCN)C(=O)N[C@@H](CC(C)C)C(=O)N[C@@H](CCCCN)C(=O)O` [compound 95, PVLDLFRELLNLXLEALKQKLK] (H-PVLDLFRELLNL[Aib]LEALKQKLK-OH), the “ACTIVITY (%) LCAT” value is on record as 5%.
Turning to PVLDEFREKLNELLEALKQKLK [compound 84], the “ACTIVITY (%) LCAT” value amounted to 7%.
As for PVLELFLNLLEKLLDALQKKLK [compound 166], the figure is 22%.
To GVLDLFRELLNELLEALKQKLKK [peptide 2] belongs 105%.
For PVLDLFRELGNELLEALKQKLK [peptide 9], the “ACTIVITY (%) LCAT” value stood at 83%.
To “Ac-NVLDLFRELLEELKQKLK-NH2 [compound 200]” belongs 75%; to `CC(C)C[C@H](NC(=O)[C@H](C)NC(=O)[C@H](CC(=O)O)NC(=O)[C@H](CC(C)C)NC(=O)[C@H](CC(C)C)NC(=O)[C@H](CCCNC(=N)N)NC(=O)[C@H](CCC(=O)O)NC(=O)[C@H](CC(C)C)NC(=O)[C@H](CC(C)C)NC(=O)[C@H](CC(N)=O)NC(=O)[C@H](CCC(=O)O)NC(=O)[C@H](Cc1ccccc1)NC(=O)[C@H](CC(C)C)NC(=O)[C@H](CCC(=O)O)NC(=O)[C@H](CC(C)C)NC(=O)[C@@H](NC(=O)[C@@H]1CCCN1)C(C)C)C(=O)N[C@@H](CCC(N)=O)C(=O)N[C@@H](CCCN)C(=O)N[C@@H](CCCN)C(=O)N[C@@H](CC(C)C)C(=O)N[C@@H](CCCN)C(=O)O` [compound 185, PVLELFENLLERLLDALQOOLO] (H-PVLELFENLLERLLDALQ[Orn][Orn]L[Orn]-OH), 3%.
To `CC(C)C[C@H](NC(=O)[C@H](C)NC(=O)[C@H](CCC(=O)O)NC(=O)[C@H](CC(C)C)NC(=O)C(C)(C)NC(=O)[C@H](CCC(=O)O)NC(=O)[C@H](CC(N)=O)NC(=O)[C@H](CC(C)C)NC(=O)[C@H](CCCCN)NC(=O)[C@H](CCC(=O)O)NC(=O)[C@H](CCCNC(=N)N)NC(=O)[C@H](Cc1ccccc1)NC(=O)[C@H](Cc1ccccc1)NC(=O)[C@H](CC(=O)O)NC(=O)[C@H](CC(C)C)NC(=O)[C@@H](NC(=O)[C@@H]1CCCN1)C(C)C)C(=O)N[C@@H](CCCCN)C(=O)N[C@@H](CCC(N)=O)C(=O)N[C@@H](CCCCN)C(=O)N[C@@H](CC(C)C)C(=O)N[C@@H](CCCCN)C(=O)O` [compound 63, PVLDFFREKLNEXLEALKQKLK] (H-PVLDFFREKLNE[Aib]LEALKQKLK-OH) belongs 16%; to PVLELFENLLERLLEALQKKLK [compound 161], 27%.
To `CC(C)C[C@H](NC(=O)[C@H](C)NC(=O)[C@H](CCC(=O)O)NC(=O)[C@H](CC(C)C)NC(=O)C(C)(C)NC(=O)[C@H](CCC(=O)O)NC(=O)[C@H](CC(N)=O)NC(=O)[C@H](CC(C)C)NC(=O)[C@H](CCCCN)NC(=O)[C@H](CCC(=O)O)NC(=O)[C@H](CCCNC(=N)N)NC(=O)[C@H](Cc1ccccc1)NC(=O)[C@H](CCC(=O)O)NC(=O)[C@H](CC(=O)O)NC(=O)[C@H](CC(C)C)NC(=O)[C@@H](NC(=O)[C@@H]1CCCN1)C(C)C)C(=O)N[C@@H](CCC(=O)O)C(=O)N[C@@H](CCC(N)=O)C(=O)N[C@@H](CCCCN)C(=O)N[C@@H](CC(C)C)C(=O)N[C@@H](CCCCN)C(=O)O` [compound 118, PVLDEFREKLNEXLEALEQKLK] (H-PVLDEFREKLNE[Aib]LEALEQKLK-OH) belongs 0%; to PVLDAFRELAEALAQLKK [compound 225], 1%; to PVLDEFRELLNELLEALKQKLK [compound 79], 9%.
Consider `CC(C)C[C@H](NC(=O)[C@H](C)NC(=O)[C@H](CCC(=O)O)NC(=O)[C@H](CC(C)C)NC(=O)C(C)(C)NC(=O)[C@H](Cc1c[nH]c2ccccc12)NC(=O)[C@H](CC(N)=O)NC(=O)[C@H](CC(C)C)NC(=O)[C@H](CC(C)C)NC(=O)[C@H](CCC(=O)O)NC(=O)[C@H](CCCNC(=N)N)NC(=O)[C@H](Cc1ccccc1)NC(=O)[C@H](CC(C)C)NC(=O)[C@H](CC(=O)O)NC(=O)[C@H](CC(C)C)NC(=O)[C@@H](NC(=O)[C@@H]1CCCN1)C(C)C)C(=O)N[C@@H](CCCCN)C(=O)N[C@@H](CCC(N)=O)C(=O)N[C@@H](CCCCN)C(=O)N[C@@H](CC(C)C)C(=O)N[C@@H](CCCCN)C(=O)O` [compound 101, PVLDLFRELLNWXLEALKQKLK] (H-PVLDLFRELLNW[Aib]LEALKQKLK-OH), for which the “ACTIVITY (%) LCAT” value is listed as 2%.
As for `CC(C)C[C@H](NC(=O)[C@H](C)NC(=O)[C@H](CCC(=O)O)NC(=O)[C@H](CC(C)C)NC(=O)[C@H](CC(C)C)NC(=O)[C@H](CCC(=O)O)NC(=O)[C@H](CC(N)=O)NC(=O)[C@H](CC(C)C)NC(=O)[C@H](CC(C)C)NC(=O)[C@H](CCC(=O)O)NC(=O)[C@H](CCCNC(=N)N)NC(=O)[C@H](Cc1ccccc1)NC(=O)[C@H](CC(C)C)NC(=O)[C@H](CC(=O)O)NC(=O)[C@H](CC(C)C)NC(=O)[C@@H](NC(=O)[C@H]1CCCN1)C(C)C)C(=O)N[C@@H](CCCCN)C(=O)N[C@@H](CCC(N)=O)C(=O)N[C@@H](CCCCN)C(=O)N[C@@H](CC(C)C)C(=O)N[C@@H](CCCCN)C(=O)O` [compound 21], the figure is 57%.
Take `CC(C)C[C@H](NC(=O)[C@H](C)NC(=O)[C@H](CCC(=O)O)NC(=O)[C@H](CC(C)C)NC(=O)C(C)(C)NC(=O)[C@H](CCC(=O)O)NC(=O)[C@H](CC(N)=O)NC(=O)[C@H](CC(C)C)NC(=O)[C@H](CC(C)C)NC(=O)[C@H](CCC(=O)O)NC(=O)[C@H](CCCNC(=N)N)NC(=O)[C@H](Cc1ccccc1)NC(=O)[C@H](CCCCN)NC(=O)[C@H](CC(=O)O)NC(=O)[C@H](CC(C)C)NC(=O)[C@@H](NC(=O)[C@@H]1CCCN1)C(C)C)C(=O)N[C@@H](CCCCN)C(=O)N[C@@H](CCC(N)=O)C(=O)N[C@@H](CCCCN)C(=O)N[C@@H](CC(C)C)C(=O)N[C@@H](CCCCN)C(=O)O` [compound 88, PVLDKFRELLNEXLEALKQKLK] (H-PVLDKFRELLNE[Aib]LEALKQKLK-OH): the “ACTIVITY (%) LCAT” value is 7%.
Regarding PLLELFENLLERLLDALQKKLK [peptide 150], the “ACTIVITY (%) LCAT” value was 57%.
To PVLDLFRNLLEELLKALEQKLK [compound 57] belongs 18%; to `CC(=O)N1CCC[C@@H]1C(=O)N[C@H](C(=O)N[C@@H](CC(C)C)C(=O)N[C@@H](CC(=O)O)C(=O)N[C@@H](CC(C)C)C(=O)N[C@@H](Cc1ccccc1)C(=O)N[C@@H](CCCNC(=N)N)C(=O)N[C@@H](CCC(=O)O)C(=O)N[C@@H](CC(C)C)C(=O)N[C@@H](CC(C)C)C(=O)N[C@@H](CCC(=O)O)C(=O)N[C@@H](CCC(=O)O)C(=O)N[C@@H](CC(C)C)C(=O)N[C@@H](CCCCN)C(=O)N[C@@H](CCC(N)=O)C(=O)N[C@@H](CCCCN)C(=O)N[C@@H](CC(C)C)C(=O)N[C@@H](CCCCN)C(N)=O)C(C)C` [compound 214] (Ac-[dP]VLDLFRELLEELKQKLK-NH2), 39%; to PVLDLFRELLNEELEALKQKLK [compound 98], 2%.
